The text below walks through data of paper PMC6273820, “Antimicrobial Activity and Stability of Short and Long Based Arachnid Synthetic Peptides in the Presence of Commercial Antibiotics” (Molecules, 2016).

Where no end group is shown, it is not given here.

Data set [1] deals with Escherichia coli ATCC 25922. The data set can be described thus: microbe, parasite or virus in culture. The class given is cell-based. The note with it: broth microdilution (CLSI), Mueller-Hinton broth, 18 h at 37 °C, A625nm; peptides n = 8. The method, then: It was determined using the broth microdilution assay in accordance with the procedures from the Clinical and Laboratory Standards Institute. For broth microdilution assays, pathogenic bacteria, such as Escherichia coli ATCC 25922, Staphylococcus aureus ATCC 25923, Pseudomonas aeruginosa ATCC 27853 and Klebsiella pneumoniae ST258, were cultured in Mueller-Hinton broth (MHB) at 37 °C until an end point between of 0.08 and 0.13 units of absorbance at 625 nm and diluted 1:100 in MHB (ca. […]). Fifty microliters of this bacterial suspension was dispensed into each well of a 96-well microtiter Costar® culture plates (Sigma Aldrich) having 50 µL of MHB containing a proper concentration of pure AMPs, antibiotics or the mixture of either of the AMPs with either of the antibiotics used. Dilutions of peptides and antibiotics were made manually with two-fold dilutions. […]
On the technique in general: Dilution methods test growth across graded concentrations, often in twofold steps.

Data set [2] relates to Pseudomonas aeruginosa ATCC 27853. Nature of the data set: microbe, parasite or virus in culture. The note with it: broth microdilution (CLSI), Mueller-Hinton broth, 18 h at 37 °C, A625nm; peptides n = 8. The class given is cell-based. The method, then:
(§1) It was determined using the broth microdilution assay in accordance with the procedures from the Clinical and Laboratory Standards Institute. For broth microdilution assays, pathogenic bacteria, such as Escherichia coli ATCC 25922, Staphylococcus aureus ATCC 25923, Pseudomonas aeruginosa ATCC 27853 and Klebsiella pneumoniae ST258, were cultured in Mueller-Hinton broth (MHB) at 37 °C until an end point between of 0.08 and 0.13 units of absorbance at 625 nm and diluted 1:100 in MHB (ca. […]). Fifty microliters of this bacterial suspension was dispensed into each well of a 96-well microtiter Costar® culture plates (Sigma Aldrich) having 50 µL of MHB containing a proper concentration of pure AMPs, antibiotics or the mixture of either of the AMPs with either of the antibiotics used. Dilutions of peptides and antibiotics were made manually with two-fold dilutions.
(§2) E. coli, S. aureus, P. aeruginosa and K. pneumoniae were grown in the presence of each of the four AMPs, and in the presence of each of the eight commercial antibiotics, which were Levofloxacin, Trimethoprim, Sulfamethoxazole, Azithromycin, Amoxicillin, Ceftriaxone, Gentamicin and Vancomycin, and in combinations of AMPs and the antibiotics. That is, the antimicrobial capacity of each AMP (50, 25, 12.5 and 6.2 µg/ mL) in combination with each antibiotic agent (50, 25, 12.5, 3.2, 1.6 and 0 µg/ mL) was measured as described above. For evaluation of the effect of the mixtures, the fractional inhibitory concentration (FIC) was calculated for each antibiotic in each combination. The following formulas were used to calculate the FIC index: FIC of AMP = MIC of AMP in combination with Antibiotic/MIC of AMP alone; FIC of Antibiotic = MIC of Antibiotic in combination with AMP/MIC of Antibiotic alone, and FIC index = FIC of AMP + FIC of Antibiotic. Synergy was defined as an FIC index of <0.5. Additive was defined as an FIC index of >0.5 but of <4, and finally antagonism was defined as an FIC index of >4.

The subject of data set [3] is Staphylococcus aureus ATCC 25923. The data set can be described thus: microbe, parasite or virus in culture. It counts as cell-based. Particulars: broth microdilution (CLSI), Mueller-Hinton broth, 18 h at 37 °C, A625nm; peptides n = 8. The method, then:
as §1, §2

Data set [4] concerns Klebsiella pneumoniae ST258. Nature of the data set: microbe, parasite or virus in culture. The class given is cell-based. The note with it: for Peptide (MIC): peptide alone against K. pneumoniae, based on Figure 2. As to the method:
as §1
as §2, with “That” for “E. coli, S. aureus, P. aeruginosa and K. pneumoniae were grown in the presence of each of the four AMPs, and in the presence of each of the eight commercial antibiotics, which were Levofloxacin, Trimethoprim, Sulfamethoxazole, Azithromycin, Amoxicillin, Ceftriaxone, Gentamicin and Vancomycin, and in combinations of AMPs and the antibiotics. That”

Data set [5] can be described thus: Stability in saline buffer (PBS). The class given is physicochemical. The note with it: 20 μg peptide in PBS pH 7.4, 37 °C, 7 days; height of peptide peak in reverse phase HPLC. The method, then: The stability of the four synthetic peptides (20 μg) was measured in phosphate buffered saline (PBS) that consisted of NaCl (137 mM), KCl (2.7 mM), Na2HPO4 (10 mM) and KH2PO4 (2 mM) at 37 °C for 7 days (pH 7.4). The stability of peptides in PBS was monitored measuring the height of the peptide peak when separated using reverse phase HPLC under the separation conditions mentioned above.

Data set [6] is described as follows: Stability in human blood plasma. The class given is in vitro ADME. Particulars: 50 μg/mL; for Peptide found after incubation in human blood plasma: 12 h at 37 °C, extraction, reverse phase HPLC at 230 nm, ESI-MS. The method, then: (§3) The four synthetic peptides were subjected to incubation in human blood plasma or in the supernatant of S. aureus and P. aeruginosa growth. The AMPs were diluted in human blood plasma or in the supernatant of bacterial growth (50 μg/mL) and incubated at 37 °C for 12 h. After peptide extraction, the AMPs were separated by reverse phase HPLC using a C18 column (Vydac 218 TP54, Grace Co.) and a linear gradient of acetonitrile in 0.1% aqueous TFA from 0 to 60% in 60 min at a flow rate of 1 mL/min. Effluent absorbance was monitored at 230 nm. Peptide fractions were dried under vacuum, resuspended and analyzed by ESI-MS to confirm their molecular masses.

Data set [7] is described as follows: Stability in supernatant of S. aureus growth. The class given is in vitro ADME, Staphylococcus aureus. Particulars: 50 μg/mL, 12 h at 37 °C, extraction, reverse phase HPLC at 230 nm. As to the method: as §3
Data set [8] can be described thus: Stability in supernatant of P. aeruginosa growth. It counts as in vitro ADME, Pseudomonas aeruginosa. The note with it: 50 μg/mL, 12 h at 37 °C, extraction, reverse phase HPLC at 230 nm. As to the method:
as §3

For data set [9] the following is noted: cited from earlier work. The text has this: Concerning AMPs, several physicochemical characteristics have been associated with the biological activity of them. Those that are relevant include hydrophobicity, the helical hydrophobic moment, as well as the size and the net charge of the peptide. However, no particular value relating to any of these characteristics was solely sufficient to correlate with the antimicrobial activity of the AMPs tested. In this case, however, the larger peptides FA1 and Pin2[G] were the AMPs that manifested optimum biological performance. Nevertheless, a fine balance in terms of physicochemical pr ...

In the case of GILKTIKSIASKVANTVQKLKRKAKNAV [FA1], the “Minimal Inhibitory Concentration, E. coli” value in data set [1] is recorded as 12.5 µg/mL. The “Minimal Inhibitory Concentration, P. aureginosa” value in data set [2] is reported as 25 µg/mL. Further, the “Minimal Inhibitory Concentration, S. aureus” value in data set [3] is more than 50 µg/mL. Moreover, the “Minimal Inhibitory Concentration, K. pneumoniae” value in [4] (broth microdilution (CLSI), Mueller-Hinton broth, 18 h at 37 °C, A625nm, peptides n = 8) is more than 50 µg/mL. The “Peptide (MIC)” value in data set [4] is reported as more than 50 µg/mL. Further, the “Stability in saline buffer” value in [5] is listed as “less stable”. For the same sequence, the “Peptide found after incubation in human blood plasma” value in data set [6] was “not found”. The “Recovery after interaction with human plasma, first few minutes of dilution” value in data set [6] (extracted after the first few minutes of dilution, reverse phase HPLC) is listed as “none”. Further, the “Stability in supernatants of S. aureus” value in data set [7] was “only a small amount”. Further, the “Stability in supernatants of P. aeruginosa” value in [8] is “not found”. For the same sequence, in data set [9], the hemolytic activity is listed as 665 µM.

On to FWGALAKGALKLIGSLFSSFSKKD [Pin2[G]], for which, in data set [1], the “Minimal Inhibitory Concentration, E. coli” value was 50 µg/mL. The “Minimal Inhibitory Concentration, P. aureginosa” value in data set [2] is reported as more than 50 µg/mL. Further, the “Minimal Inhibitory Concentration, S. aureus” value in [3] came to 25 µg/mL. For the same sequence, the “Peptide (MIC)” value in data set [4] is more than 50 µg/mL. Further, the “Peptide found after incubation in human blood plasma” value in data set [6] is “One quarter”. Besides, in data set [7], the “Stability in supernatants of S. aureus” value is listed as “not cleaved”. For the same sequence, the “Stability in supernatants of P. aeruginosa” value in data set [8] was “not cleaved”. The hemolytic activity in data set [9] is on record as 1.4 µM.
